Results taken from the supplement of paper PMC5908809.

How the values were obtained:
[1] = system: normal NK cells expanded with K562-aAPC; test: percent inhibition of viability; higher = more inhibition; conditions: 72 h, IL-2 2.5 ng/mL
Protocol: (§1)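 Drug sensitivity and resistance testing on K562-aAPC-expanded normal NK cells: 5 concentrations (10-fold steps over a 10,000-fold range), 72 h at 37 °C, viability by CellTiter-Glo normalised to DMSO and benzethonium chloride controls; DSS from the fitted curve.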

[2] = system: DERL-7 (IL-2 2.5 ng/mL); test: as above; conditions: 72 h
[3] = system: IMC-1 (IL-2 20 ng/mL); test: as above; conditions: 72 h
[4] = system: KAI3 (IL-2 2.5 ng/mL); test: as above; conditions: 72 h
[5] = system: KHYG-1 (IL-2 2.5 ng/mL); test: as above; conditions: 72 h
[6] = system: NK-92 (IL-2 2.5 ng/mL); test: as above; conditions: 72 h
[7] = system: NK-YS (IL-2 2.5 ng/mL); test: as above; conditions: 72 h
[8] = system: NKL (IL-2 2.5 ng/mL); test: as above; conditions: 72 h
[9] = system: SNK-6 (IL-2 2.5 ng/mL); test: as above; conditions: 72 h
[10] = system: YT (IL-2 2.5 ng/mL); test: as above; conditions: 72 h
[11] = system: normal primary NK cells, pool 1 (3 donors) (IL-2 2.5 ng/mL); test: as above; conditions: 72 h
[12] = system: normal primary NK cells, pool 1 (3 donors), resting (IL-2 0 ng/mL); test: as above; conditions: 72 h
[13] = system: normal primary NK cells, pool 2 (3 donors) (IL-2 2.5 ng/mL); test: as above; conditions: 72 h
[14] = system: normal primary NK cells, pool 3 (3 donors) (IL-2 2.5 ng/mL); test: as above; conditions: 72 h
[15] = system: normal NK cells expanded with K562-aAPC; test: drug sensitivity score (DSS) (DSS units); higher = more sensitive; extreme values may be limits of the assay; conditions: 72 h; IL-2 2.5 ng/mL
Protocol: as §1

[16] = system: DERL-7 (IL-2 2.5 ng/mL); test: as above; conditions: 72 h
[17] = system: IMC-1 (IL-2 20 ng/mL); test: as above; conditions: 72 h
[18] = system: KAI3 (IL-2 2.5 ng/mL); test: as above; conditions: 72 h
[19] = system: KHYG-1 (IL-2 2.5 ng/mL); test: as above; conditions: 72 h
[20] = system: NK-92 (IL-2 2.5 ng/mL); test: as above; conditions: 72 h
[21] = system: NK-YS (IL-2 2.5 ng/mL); test: as above; conditions: 72 h
[22] = system: NKL (IL-2 2.5 ng/mL); test: as above; conditions: 72 h
[23] = system: SNK-6 (IL-2 2.5 ng/mL); test: as above; conditions: 72 h
[24] = system: YT (IL-2 2.5 ng/mL); test: as above; conditions: 72 h
[25] = system: normal primary NK cells, pool 1 (3 donors) (IL-2 2.5 ng/mL); test: as above; conditions: 72 h
[26] = system: normal primary NK cells, pool 1 (3 donors), resting (IL-2 0 ng/mL); test: as above; conditions: 72 h
[27] = system: normal primary NK cells, pool 2 (3 donors) (IL-2 2.5 ng/mL); test: as above; conditions: 72 h
[28] = system: normal primary NK cells, pool 3 (3 donors) (IL-2 2.5 ng/mL); test: as above; conditions: 72 h

CCc1nc(-c2cccc(C)c2)c(-c2ccnc(NC(=O)c3ccccc3)c2)s1 [TAK-715] (max concentration tested 10000 nM)
percent inhibition of viability [%]
Conditions | 1 nM | 10 nM | 100 nM | 1000 nM | 10000 nM
[1] | -6.95 | -2.48 | -3.15 | 7.93 | 1.86
[2] | -3.04 | 0.75 | -2.18 | -4.76 | 8.69
[3] | -6.3 | 1.07 | -0.32 | 8.04 | 35.2
[4] | -4.52 | 11.6 | 8.66 | 14 | 47
[5] | -3.44 | 6.66 | 1.56 | 3.92 | 42.6
[6] | -3.47 | -2.91 | 1.84 | 9.91 | 81.8
[7] | -4.18 | 3.4 | 5.2 | 13.3 | 54.6
[8] | -0.29 | 6.95 | 13.8 | 30.5 | 43.6
[9] | -15.1 | -7.56 | -2.44 | -0.98 | 67
[10] | -1.34 | 5.71 | 0.2 | 5.66 | 48.7
[11] | -3.9 | -10.5 | -3.55 | -13.9 | 13.3
[12] | 2.15 | 0.59 | -2.35 | -18.5 | 45.6
[13] | -3.82 | 0.59 | 1.26 | -4.23 | 23.5
[14] | -8.64 | -2.23 | 3.1 | -8.31 | 13.7

Conditions | drug sensitivity score
[15] | 0
[16] | 0
[17] | 2.93
[18] | 3.97
[19] | 2.79
[20] | 6.19
[21] | 5.02
[22] | 6.94
[23] | 3.59
[24] | 3.5
[25] | 0.02
[26] | 1.63
[27] | 0.63
[28] | 0.05
